Results reported in patent US9290536B2, “C4 monomethyl triterpenoid derivatives and methods of use thereof” (Reata Pharmaceuticals, Inc., priority 2011, dated 2016).

What follows are molecules tested on IFNγ-induced NO production in RAW264.7 (assay: Suppression of IFNγ-induced NO production in RAW264.7 mouse macrophages (Griess reagent, normalized to WST-1 cell viability)). Conditions: RAW264.7 cells, 2 h pre-treatment with drug (0-200 nM), then IFNγ for 24 h.
Format: cell-based
Protocol: Nitric Oxide Production and Cell Viability. […] On the next day, cells were pre-treated with DMSO or drug (0-200 nM dose range) for 2 hours, and then treated with recombinant mouse IFNγ (R&D Systems) for 24 hours. Nitric Oxide concentration in media was determined using the Griess reagent system (Promega). Cell viability was determined using WST-1 reagent (Roche). IC50 values were determined based on the suppression of IFNγ induced Nitric Oxide production normalized to cell viability.
For COC(=O)[C@]12CCC(C)(C)C[C@H]1[C@H]1C(=O)C=C3[C@@]4(C)C=C(C#N)C(=O)C(C)=C4CC[C@@]3(C)[C@]1(C)CC2 [TX63448], the IC50 was 75 nM.
In the case of CCNC(=O)[C@]12CCC(C)(C)C[C@H]1[C@H]1C(=O)C=C3[C@@]4(C)C=C(C#N)C(=O)[C@@H](C)[C@@H]4CC[C@@]3(C)[C@]1(C)CC2 [TX63521], the IC50 is reported as 1.1 nM.
In the case of CC(=O)OC[C@]12CCC(C)(C)C[C@H]1[C@H]1C(=O)C=C3[C@@]4(C)C=C(C#N)C(=O)[C@@H](C)[C@@H]4CC[C@@]3(C)[C@]1(C)CC2 [TX63546], the IC50 is reported as 1 nM.
For C[C@@H]1C(=O)C(C#N)=C[C@]2(C)C3=CC(=O)[C@@]4(C)[C@@H]5CC(C)(C)CC[C@]56CC[C@]4(OC6=O)[C@]3(C)CC[C@@H]12 [TX63556], the IC50 was 69 nM.
Work on C[C@@H]1C(=O)C(C#N)=C[C@]2(C)C3=CC(=O)[C@@H]4[C@@H]5CC(C)(C)CC[C@]5(C(N)=O)CC[C@@]4(C)[C@]3(C)CC[C@@H]12 [TX63557] yielded an IC50 of 2.2 nM.
Molecule C[C@@H]1C(=O)C(C#N)=C[C@]2(C)C3=CC(=O)[C@@H]4[C@@H]5CC(C)(C)CC[C@]5(C#N)CC[C@@]4(C)[C@]3(C)CC[C@@H]12 [TX63558] has an IC50 of 0.6 nM.
CCNC(=O)[C@]12CCC(C)(C)C[C@H]1[C@H]1C(=O)C=C3[C@@]4(C)C=C(C#N)C(=O)C(C)=C4CC[C@@]3(C)[C@]1(C)CC2 [TX63597] was tested, and the IC50 was > 25 nM.
For COC(=O)[C@]12CCC(C)(C)C[C@H]1[C@H]1C(=O)C=C3[C@@]4(C)C=C(C#N)C(=O)C[C@@H]4CC[C@@]3(C)[C@]1(C)CC2 [TX63614], the IC50 was 11.7 nM.
Work on C[C@@H]1C(=O)C(C#N)=C[C@]2(C)C3=CC(=O)[C@@H]4[C@@H]5CC(C)(C)CC[C@]5(N)CC[C@@]4(C)[C@]3(C)CC[C@@H]12 [TX63620] yielded an IC50 of 1.2 nM.
Work on C[C@@H]1C(=O)C(C#N)=C[C@]2(C)C3=CC(=O)[C@@H]4[C@@H]5CC(C)(C)CC[C@]5(NS(C)(=O)=O)CC[C@@]4(C)[C@]3(C)CC[C@@H]12 [TX63621] yielded an IC50 of 0.8 nM.
For CC(=O)N[C@]12CCC(C)(C)C[C@H]1[C@H]1C(=O)C=C3[C@@]4(C)C=C(C#N)C(=O)[C@@H](C)[C@@H]4CC[C@@]3(C)[C@]1(C)CC2 [TX63622], the IC50 was 3.8 nM.
With CCNC(=O)[C@]12CCC(C)(C)C[C@H]1[C@H]1C(=O)C[C@@H]3[C@@]4(C)C=C(C#N)C(=O)[C@@H](C)[C@@H]4CC[C@@]3(C)[C@]1(C)CC2 [TX63680] the IC50 was 7 nM.
With C[C@@H]1C(=O)C(C#N)=C[C@]2(C)C3=CC(=O)[C@@H]4[C@@H]5CC(C)(C)CC[C@]5(NC=O)CC[C@@]4(C)[C@]3(C)CC[C@@H]12 [TX63681] the IC50 was 1.6 nM.
COC(=O)N[C@]12CCC(C)(C)C[C@H]1[C@H]1C(=O)C=C3[C@@]4(C)C=C(C#N)C(=O)[C@@H](C)[C@@H]4CC[C@@]3(C)[C@]1(C)CC2 [TX63693] showed an IC50 of 1.4 nM.
Molecule C[C@@H]1C(=O)C(C#N)=C[C@]2(C)C3=CC(=O)[C@@H]4[C@@H]5CC(C)(C)CC[C@]5(COC(=O)CNC(=O)OC(C)(C)C)CC[C@@]4(C)[C@]3(C)CC[C@@H]12 [TX63716] has an IC50 of 3.2 nM.
In the case of C[C@@H]1C(=O)C(C#N)=C[C@]2(C)C3=CC(=O)[C@@H]4[C@@H]5CC(C)(C)CC[C@]5(COC(=O)CN)CC[C@@]4(C)[C@]3(C)CC[C@@H]12 [TX63717], the IC50 is reported as 0.6 nM.
With COC(=O)[C@]12CCC(C)(C)C[C@H]1[C@H]1C(=O)C=C3[C@@]4(C)CC(C#N)=C(O)[C@@H](C)[C@@H]4CC[C@@]3(C)[C@]1(C)CC2 [TX63778] the IC50 was 50 nM.
With COC(=O)[C@]12CCC(C)(C)C[C@H]1C1=CC[C@@H]3[C@@]4(C)C=C(C#N)C(=O)[C@@H](C)[C@@H]4CC[C@@]3(C)[C@]1(C)CC2 [TX63779] the IC50 was 44 nM.
COCC(=O)NNC(=O)[C@]12CCC(C)(C)C[C@H]1[C@H]1C(=O)C=C3[C@@]4(C)C=C(C#N)C(=O)[C@@H](C)[C@@H]4CC[C@@]3(C)[C@]1(C)CC2 [TX63784] gave an IC50 of 7.5 nM.
C[C@@H]1C(=O)C(C#N)=C[C@]2(C)C3=CC(=O)[C@@H]4[C@@H]5CC(C)(C)CC[C@]5(C(=O)NNC=O)CC[C@@]4(C)[C@]3(C)CC[C@@H]12 [TX63785] gave an IC50 of 20 nM.
In the case of C/C(=N\O)NC(=O)[C@]12CCC(C)(C)C[C@H]1[C@H]1C(=O)C=C3[C@@]4(C)C=C(C#N)C(=O)[C@@H](C)[C@@H]4CC[C@@]3(C)[C@]1(C)CC2 [TX63786], the IC50 is reported as 2.2 nM.
Cc1noc([C@]23CCC(C)(C)C[C@H]2[C@H]2C(=O)C=C4[C@@]5(C)C=C(C#N)C(=O)[C@@H](C)[C@@H]5CC[C@@]4(C)[C@]2(C)CC3)n1 [TX63787] gave an IC50 of 0.8 nM.
In the case of COC(=O)C1=C[C@]2(C)C3=CC(=O)[C@@H]4[C@@H]5CC(C)(C)CC[C@]5(C(=O)OC)CC[C@@]4(C)[C@]3(C)CC[C@H]2[C@H](C)C1=O [TX63788], the IC50 is reported as 33.5 nM.
In the case of C[C@@H]1C(=O)C(C#N)=C[C@]2(C)C3=CC(=O)[C@@H]4[C@@H]5CC(C)(C)CC[C@]5(c5nnco5)CC[C@@]4(C)[C@]3(C)CC[C@@H]12 [TX63789], the IC50 is reported as 0.6 nM.
COCc1nnc([C@]23CCC(C)(C)C[C@H]2[C@H]2C(=O)C=C4[C@@]5(C)C=C(C#N)C(=O)[C@@H](C)[C@@H]5CC[C@@]4(C)[C@]2(C)CC3)o1 [TX63790] showed an IC50 of 1.1 nM.
In the case of COC(=O)[C@]12CCC(C)(C)C[C@H]1C1=CC[C@@H]3[C@@]4(C)CC(C#N)=C(OC(C)=O)[C@@H](C)[C@@H]4CC[C@@]3(C)[C@]1(C)CC2 [TX63795], the IC50 is reported as > 200 nM.
With C[C@@H]1C(=O)C(C#N)=C[C@]2(C)[C@H]3CC(=O)[C@@H]4[C@@H]5CC(C)(C)CC[C@]5(C(=O)O)CC[C@@]4(C)[C@]3(C)CC[C@@H]12 [TX63797] the IC50 was 21 nM.
Work on C[C@@H]1C(=O)C(C#N)=C[C@]2(C)C3=CC(=O)[C@@H]4[C@@H]5CC(C)(C)CC[C@]5(NC(=O)c5ccccc5)CC[C@@]4(C)[C@]3(C)CC[C@@H]12 [TX63798] yielded an IC50 of 1.5 nM.
C[C@@H]1C(=O)C(C#N)=C[C@]2(C)C3=CC(=O)[C@@H]4[C@@H]5CC(C)(C)CC[C@]5(NC(=O)CC(F)(F)F)CC[C@@]4(C)[C@]3(C)CC[C@@H]12 [TX63799] was tested, and the IC50 was 1.8 nM.
In the case of CCOC(=O)N[C@]12CCC(C)(C)C[C@H]1[C@H]1C(=O)C=C3[C@@]4(C)C=C(C#N)C(=O)[C@@H](C)[C@@H]4CC[C@@]3(C)[C@]1(C)CC2 [TX63800], the IC50 is reported as 0.9 nM.
C[C@@H]1C(=O)C(C#N)=C[C@]2(C)[C@H]3CC(=O)[C@@H]4[C@@H]5CC(C)(C)CC[C@]5(C(=O)NCC(F)(F)F)CC[C@@]4(C)[C@]3(C)CC[C@@H]12 [TX63807] gave an IC50 of 5.8 nM.
Molecule C[C@@H]1C(=O)C(C#N)=C[C@]2(C)[C@H]3CC(=O)[C@@H]4[C@@H]5CC(C)(C)CC[C@]5(C(=O)n5ccnc5)CC[C@@]4(C)[C@]3(C)CC[C@@H]12 [TX63811] has an IC50 of 0.3 nM.
In the case of C[C@@H]1C(=O)C(C#N)=C[C@]2(C)[C@H]3CC(=O)[C@@H]4[C@@H]5CC(C)(C)CC[C@]5(C(=O)N5CCOCC5)CC[C@@]4(C)[C@]3(C)CC[C@@H]12 [TX63812], the IC50 is reported as 10.1 nM.
C[C@@H]1C(=O)C(C#N)=C[C@]2(C)[C@H]3CC(=O)[C@@H]4[C@@H]5CC(C)(C)CC[C@]5(C(=O)NO)CC[C@@]4(C)[C@]3(C)CC[C@@H]12 [TX63814] showed an IC50 of 19 nM.
With CONC(=O)[C@]12CCC(C)(C)C[C@H]1[C@H]1C(=O)C[C@@H]3[C@@]4(C)C=C(C#N)C(=O)[C@@H](C)[C@@H]4CC[C@@]3(C)[C@]1(C)CC2 [TX63815] the IC50 was 9.6 nM.
In the case of C[C@@H]1C(=O)C(C#N)=C[C@]2(C)[C@H]3CC(=O)[C@@H]4[C@@H]5CC(C)(C)CC[C@]5(C(N)=O)CC[C@@]4(C)[C@]3(C)CC[C@@H]12 [TX63816], the IC50 is reported as 10.2 nM.
C[C@@H]1C(=O)C(C#N)=C[C@]2(C)[C@H]3CC(=O)[C@@H]4[C@@H]5CC(C)(C)CC[C@]5(C#N)CC[C@@]4(C)[C@]3(C)CC[C@@H]12 [TX63817] gave an IC50 of 2.6 nM.
For C[C@@H]1C(=O)C(C#N)=C[C@]2(C)C3=CC(=O)[C@@H]4[C@@H]5CC(C)(C)CC[C@]5(NS(=O)(=O)CC(F)(F)F)CC[C@@]4(C)[C@]3(C)CC[C@@H]12 [TX63818], the IC50 was 0.8 nM.
Molecule CC(C)OC(=O)N[C@]12CCC(C)(C)C[C@H]1[C@H]1C(=O)C=C3[C@@]4(C)C=C(C#N)C(=O)[C@@H](C)[C@@H]4CC[C@@]3(C)[C@]1(C)CC2 [TX63819] has an IC50 of 2.7 nM.
Work on CCOC(=O)[C@]12CCC(C)(C)C[C@H]1[C@H]1C(=O)C=C3[C@@]4(C)C=C(C#N)C(=O)[C@@H](C)[C@@H]4CC[C@@]3(C)[C@]1(C)CC2 [TX63820] yielded an IC50 of 1.5 nM.
CCCCCCOC(=O)[C@]12CCC(C)(C)C[C@H]1[C@H]1C(=O)C=C3[C@@]4(C)C=C(C#N)C(=O)[C@@H](C)[C@@H]4CC[C@@]3(C)[C@]1(C)CC2 [TX63821] was tested, and the IC50 was 53 nM.
Cc1cn(C(=O)[C@]23CCC(C)(C)C[C@H]2[C@H]2C(=O)C=C4[C@@]5(C)C=C(C#N)C(=O)[C@@H](C)[C@@H]5CC[C@@]4(C)[C@]2(C)CC3)c(C)n1 [TX63822] was tested, and the IC50 was 0.7 nM.
Work on C[C@@H]1C(=O)C(C#N)=C[C@]2(C)C3=CC(=O)[C@@H]4[C@@H]5CC(C)(C)CC[C@]5(C(=O)N5CCCC5)CC[C@@]4(C)[C@]3(C)CC[C@@H]12 [TX63823] yielded an IC50 of 0.8 nM.
For CNC(=O)[C@]12CCC(C)(C)C[C@H]1[C@H]1C(=O)C=C3[C@@]4(C)C=C(C#N)C(=O)[C@@H](C)[C@@H]4CC[C@@]3(C)[C@]1(C)CC2 [TX63824], the IC50 was 1 nM.
For C[C@@H]1C(=O)C(C#N)=C[C@]2(C)C3=CC(=O)[C@@H]4[C@@H]5CC(C)(C)CC[C@]5(C(=O)NC5COC5)CC[C@@]4(C)[C@]3(C)CC[C@@H]12 [TX63825], the IC50 was 2 nM.
Molecule CCNC(=O)N[C@]12CCC(C)(C)C[C@H]1[C@H]1C(=O)C=C3[C@@]4(C)C=C(C#N)C(=O)[C@@H](C)[C@@H]4CC[C@@]3(C)[C@]1(C)CC2 [TX63826] has an IC50 of 4.4 nM.
